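In this assay, cells in 96-well plates receive the compound at five concentrations for 48 hours. Endpoints are linearly interpolated between the surrounding concentrations. GI50 marks 50% less growth.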 Active and inactive are the calls of the source. No stated cut-off is given here; in the data, active = GI50 up to about 1.1 µM and inactive = higher.
How the values were obtained:
Experiment in all cases: NCI anticancer screen, dose series, 48 h
NCI/ADR-RES = tested on: NCI/ADR-RES
CCRF-CEM = tested on: CCRF-CEM
MDA-MB-231 = tested on: MDA-MB-231
NCI-H522 = tested on: NCI-H522
MDA-N = tested on: MDA-N
OVCAR-5 = tested on: OVCAR-5
RPMI-8226 = tested on: RPMI-8226
SNB-75 = tested on: SNB-75
HL-60 = tested on: HL-60
NCI-H23 = tested on: NCI-H23
SF-295 = tested on: SF-295
M14 = tested on: M14
SW-620 = tested on: SW-620
OVCAR-3 = tested on: OVCAR-3
HOP-92 = tested on: HOP-92
ACHN = tested on: ACHN
Malme-3M = tested on: Malme-3M
SR = tested on: SR
UACC-257 = tested on: UACC-257
SK-MEL-5 = tested on: SK-MEL-5

SMILES	GI50 (NCI/ADR-RES)	GI50 (CCRF-CEM)	GI50 (MDA-MB-231)	GI50 (NCI-H522)	GI50 (MDA-N)	GI50 (OVCAR-5)	GI50 (RPMI-8226)	GI50 (SNB-75)	GI50 (HL-60)	GI50 (NCI-H23)	GI50 (SF-295)	GI50 (M14)	GI50 (SW-620)	GI50 (OVCAR-3)	GI50 (HOP-92)	GI50 (ACHN)	GI50 (Malme-3M)	GI50 (SR)	GI50 (UACC-257)	GI50 (SK-MEL-5)
CC(=O)Nc1ccc(S(=O)(=O)N=S(C)C)cc1	> 100 µM (inactive)	> 100 µM (inactive)	> 100 µM (inactive)	> 100 µM (inactive)	> 100 µM (inactive)	> 100 µM (inactive)	> 100 µM (inactive)	> 100 µM (inactive)	> 100 µM (inactive)	> 100 µM (inactive)	> 100 µM (inactive)	> 100 µM (inactive)	> 100 µM (inactive)	> 100 µM (inactive)	> 100 µM (inactive)	> 100 µM (inactive)	> 100 µM (inactive)	> 100 µM (inactive)	> 100 µM (inactive)	–
O=C(O)C(Cc1cccs1)C(=O)O	> 100 µM (inactive)	> 100 µM (inactive)	> 100 µM (inactive)	> 100 µM (inactive)	> 100 µM (inactive)	> 100 µM (inactive)	> 100 µM (inactive)	> 100 µM (inactive)	> 100 µM (inactive)	> 100 µM (inactive)	–	> 100 µM (inactive)	> 100 µM (inactive)	> 100 µM (inactive)	> 100 µM (inactive)	> 100 µM (inactive)	> 100 µM (inactive)	> 100 µM (inactive)	> 100 µM (inactive)	> 100 µM (inactive)
COC(=O)/C=C1/OC(c2ccccc2)=CC1=O	23.2 µM (inactive)	6.65 µM (inactive)	17 µM (inactive)	16.9 µM (inactive)	17.3 µM (inactive)	18.6 µM (inactive)	6.25 µM (inactive)	15.5 µM (inactive)	2.24 µM (inactive)	17.6 µM (inactive)	14.2 µM (inactive)	23.3 µM (inactive)	16.1 µM (inactive)	17.9 µM (inactive)	22.9 µM (inactive)	13.5 µM (inactive)	18.9 µM (inactive)	> 23.4 µM (inactive)	24.7 µM (inactive)	19.9 µM (inactive)
CCC1(O)CN(CCOC)[C@H]2C[C@@H]1C(=O)c1[nH]c3ccccc3c12 (some centres not stated)	> 100 µM (inactive)	> 100 µM (inactive)	> 100 µM (inactive)	> 100 µM (inactive)	> 100 µM (inactive)	> 100 µM (inactive)	> 100 µM (inactive)	> 100 µM (inactive)	> 100 µM (inactive)	> 100 µM (inactive)	> 100 µM (inactive)	> 100 µM (inactive)	> 100 µM (inactive)	> 100 µM (inactive)	> 100 µM (inactive)	> 100 µM (inactive)	> 100 µM (inactive)	> 100 µM (inactive)	> 100 µM (inactive)	> 100 µM (inactive)
COc1cc(/N=C\N(C)C)c2ncccc2c1	45.4 µM (inactive)	28 µM (inactive)	35.2 µM (inactive)	68.9 µM (inactive)	20.4 µM (inactive)	> 100 µM (inactive)	46.5 µM (inactive)	52.8 µM (inactive)	26.8 µM (inactive)	> 100 µM (inactive)	93.3 µM (inactive)	48.8 µM (inactive)	–	56.6 µM (inactive)	32.1 µM (inactive)	> 100 µM (inactive)	> 100 µM (inactive)	1.62 µM (inactive)	> 100 µM (inactive)	52.1 µM (inactive)
CC(C)=CCc1c(O)c(CC=C(C)C)c2oc(-c3ccc(O)cc3O)c(CC=C(C)C)c(=O)c2c1O	12.3 µM (inactive)	2.1 µM (inactive)	12.6 µM (inactive)	7.31 µM (inactive)	7.82 µM (inactive)	14.8 µM (inactive)	3.43 µM (inactive)	10.6 µM (inactive)	7.06 µM (inactive)	5.56 µM (inactive)	7.45 µM (inactive)	8.83 µM (inactive)	6.1 µM (inactive)	7.1 µM (inactive)	8.26 µM (inactive)	7.62 µM (inactive)	16.3 µM (inactive)	2.34 µM (inactive)	12.5 µM (inactive)	10.8 µM (inactive)
CC1=NN(C(=O)CC(=O)Nc2cccc(C)c2)C(=O)C1/N=N/c1ccc(S(=O)(=O)CCOS(=O)(=O)O)cc1 (configuration not stated)	0.344 µM (active)	0.422 µM (active)	0.275 µM (active)	0.291 µM (active)	0.309 µM (active)	36.6 µM (inactive)	1.86 µM (inactive)	0.805 µM (active)	1.33 µM (inactive)	0.76 µM (active)	2.82 µM (inactive)	0.484 µM (active)	0.406 µM (active)	3.65 µM (inactive)	2.25 µM (inactive)	4.72 µM (inactive)	0.839 µM (active)	0.49 µM (active)	7.71 µM (inactive)	0.369 µM (active)
c1cc2c(ncc3cscc32)s1	> 100 µM (inactive)	> 100 µM (inactive)	> 100 µM (inactive)	> 100 µM (inactive)	> 100 µM (inactive)	> 89.5 µM (inactive)	> 100 µM (inactive)	> 52.6 µM (inactive)	> 100 µM (inactive)	> 68.4 µM (inactive)	> 100 µM (inactive)	> 100 µM (inactive)	> 100 µM (inactive)	> 100 µM (inactive)	> 100 µM (inactive)	> 100 µM (inactive)	> 100 µM (inactive)	> 100 µM (inactive)	> 100 µM (inactive)	> 100 µM (inactive)
CCCC(=O)Oc1c2ccsc2c(OC(=O)CCC)c2ccsc12	1.04 µM (active)	1.54 µM (inactive)	1.49 µM (inactive)	2.26 µM (inactive)	0.371 µM (active)	2.76 µM (inactive)	1.41 µM (inactive)	1.83 µM (inactive)	1.08 µM (active)	0.74 µM (active)	0.457 µM (active)	1.57 µM (inactive)	1.63 µM (inactive)	1.07 µM (active)	1.1 µM (active)	2.23 µM (inactive)	0.359 µM (active)	0.444 µM (active)	0.92 µM (active)	0.804 µM (active)
CCC(C)C1NC(=O)C(NC(=O)C(CC(C)C)N(C)C(=O)[C@@H]2CC(O)CN2C(=O)[C@H](C)O)C(C)OC(=O)[C@H](Cc2ccc(OC)cc2)N(C)C(=O)[C@@H]2CCCN2C(=O)[C@H](CC(C)C)NC(=O)C(C)C(=O)[C@H](C(C)C)OC(=O)CC1O (some centres not stated)	6.84 µM (inactive)	0.191 µM (active)	0.349 µM (active)	0.15 µM (active)	0.133 µM (active)	0.265 µM (active)	0.249 µM (active)	0.141 µM (active)	0.417 µM (active)	0.0169 µM (active)	0.225 µM (active)	0.0935 µM (active)	0.235 µM (active)	0.232 µM (active)	0.255 µM (active)	0.351 µM (active)	0.0664 µM (active)	0.345 µM (active)	0.276 µM (active)	0.0359 µM (active)

Source: ChEMBL document CHEMBL1201862, “PubChem BioAssay data set” (2004)
